Reference: a melting point compilation (Tetko et al.; mined from patent text by program, amines drawn as free bases though some values may be those of a salt)

melting point [°C] | SMILES
112 to 114 | CCOC(=O)c1oc2cc(SC(=O)N(C)C)ccc2c1C
178 to 180 | CC(=O)Nc1ccc(S(=O)(=O)NCCCn2ccnc2)cc1
207 to 208 | COc1nc2c(S(=O)(=O)c3ccccc3)c(SC)nn2c(N2CCN(C)CC2)c1C
205 | COc1ccc2c(c1)cc(C(=O)c1cc3ccccc3n1S(=O)(=O)c1ccccc1)n2S(=O)(=O)c1ccccc1
137 | Cc1cnc(-c2ccc(Cl)s2)nc1Cl
170 | CCOC(=O)c1cn(C)c2cnc3cc(F)c(N4CCC[C@H]4CNc4ccccc4)cc3c2c1=O
160 to 161 | CC(=O)NS(=O)(=O)c1ccc(N2CCN(CC[C@@H]3OCCc4ccccc43)CC2)cc1
87 to 90 | CC(CC1(c2ccccc2)C=CCC=C1)N(C)C (configuration not stated)
196 to 198 | COc1ccc(-c2nn3c(N4CCCC4)nnc3c3ccccc23)cc1
69 to 71 | CC(C)(C)c1cc(Br)c(O)c(C#N)c1
187 to 188 | CCOc1cc2c(cc1S(=O)(=O)NC(=O)NC)C(CNC(=O)N1CC(C)=C(CC)C1=O)CCO2 (configuration not stated)
250 to 254 | Clc1ccc(Oc2cncc3sc(-c4nnn[nH]4)cc23)cc1
139 to 140 | N#Cc1cccc(-c2ccc(O)c(C=O)c2)c1
170 to 173 | CS(=O)(=O)Nc1cccc(Nc2nc(NCc3cccc(N)c3)c3nc[nH]c3n2)c1
128 to 130 | CC(=O)N[C@@H](CS)C(=O)NCCSC(=O)c1ccccc1
142 to 143 | CN(C)c1ccc(C(=O)c2ccc(OCCO)cc2)cc1
116 to 118 | O=C1N(Cc2ccc(C(F)(F)F)o2)c2c(F)cccc2C12COc1cc3c(cc12)OCO3 (configuration not stated)
90 to 91 | CN1CCN(C)C1=Nc1ccccc1-c1ccccc1
256 to 258 | NC(=O)c1cnn2c(-c3cccc(C(F)(F)F)c3)ccnc12
119 to 122 | O=C1NCC(CN2CCCCC2)c2c[nH]c3cccc1c23 (configuration not stated)
146 to 150 | CC1(C(=O)O)CCc2c(C(=O)c3ccc(Cl)cc3)cccc21 (configuration not stated)
94 to 96 | COc1ccc(C2(CCO)C=CC=CN2)cc1OC1CCCC1 (configuration not stated)
104 to 105 | Cc1ccc(C(=O)NC(C)(C)C)cn1

melting point [°C] | SMILES
223 | COc1ccc(N2CCN(c3ccc(N4C(=O)C5CCCCN5C4=O)cc3)CC2)cc1 (configuration not stated)
161 | Cc1ccc(CN2CCN(C3=NC4(C=CC(=O)C(Cl)=C4)C(c4ccccc4)=C3)CC2)cc1 (configuration not stated)
78 to 80 | COc1ccc(C=CC(C)=O)cc1OC
102 to 103 | O=C1c2ccccc2C(=O)N1CCCCN1CCC(=C(c2ccccc2)c2ccccc2)CC1
128 to 130 | O=C(NCCO[N+](=O)[O-])c1ccc(C2NC(C(=O)O)CS2)cc1 (configuration not stated)
46.5 to 48.5 | Cc1ccc(C)c(OCc2ccccc2CCl)c1
157 to 158 | CCC(=O)Oc1ccc(/C=C/C=C/C(=O)NCCN2CCC(c3c[nH]c4ccccc34)CC2)cc1OC
71 to 75 | COC(=O)c1c(C(F)F)nc(C(F)(F)F)c(C(=O)Cl)c1CC(C)C
199 to 200 | CN(Cc1ccccc1O)c1nc(N(C)Cc2ccccc2O)nc(N(C)Cc2ccccc2O)n1
85 to 86 | CC(C)n1nc(CC(=O)c2cccc(Cl)c2)ccc1=O
189 to 191 | CCCOc1oc(=O)c2cc(NC(=O)NCC)ccc2c1Cl
> 310 | Cc1nccn1-c1nccc2[nH]c(=O)ccc12
78 to 80 | COC(=O)CCNc1ccccc1CNC(=O)C1Cc2ccccc2N1S(=O)(=O)c1ccc(-c2ccc(F)cc2OC)cc1 (configuration not stated)
162 to 163 | O=[N+]([O-])c1ccc(NCCc2c[nH]cn2)nc1
260 | COc1ccccc1C1C2CCC(C2)C12CCC(=O)N2 (configuration not stated)
138 to 139 | CN(C)CC(=O)N1c2ccccc2N(C)S(=O)(=O)c2ccc(Cl)cc21
248 to 255 | Nc1ncc(Cc2ccc3c(c2)OCO3)c(N)n1
139 to 140 | COc1ccc2cc(CNc3ccc(O)cc3)ccc2c1
81.5 | Cc1cn(Cc2ccccc2)c(=O)n(CC2(CO)CC2)c1=O
242 to 243 | COc1cc(C=CC(=O)Nc2cnc3ccc(C)cc3c2-c2ccccc2C)cc(OC)c1OC(C)=O
165 to 168 | CN[C@H](Cc1ccc2ccccc2c1)C(=O)N1CCN(S(C)(=O)=O)C[C@H]1Cc1ccccc1
198 to 200 | CCCOC(=O)c1cc(C(=O)Nc2ccccc2O)cc(Br)c1O
214 to 216 | NS(=O)(=O)c1cc(C(=O)O)cc(SCc2ccco2)c1Oc1ccccc1

melting point [°C] | SMILES
124 to 127 | O=C(Oc1cc(O)ccn1)c1ccccc1
143 to 145 | CC(C)(C)c1ccc(-c2cc(Oc3ccc4[nH]ccc4c3)ncn2)cc1
150 to 151 | CN(C)CCCCC(=O)c1ccc2c(c1)C(=O)c1cc(C(=O)CCCCN(C)C)ccc1-2
144 to 148 | COc1cc(NC(=O)C(F)(F)F)ccc1N1CCN(CCN(C(=O)C2CCCCC2)c2ccccn2)CC1
138 to 141 | CCCn1c(SC)nc2cc(Br)sc2c1=O
120 | CNC(=O)[C@@H](NC(=O)[C@@H](CC(=O)OCc1ccccc1)n1ccc(-c2ccc(-c3ccc(C#N)cc3)cc2)c1)C(C)(C)C
289 to 291 | Nc1ccccc1CCc1n[nH]c2c1c(=O)n(-c1ccccc1)c1ncccc21
92 to 93 | COC(=O)c1ccc(C#CCc2cccc3c2OCCC3(C)C)cc1O
82 to 84 | CC(C)Cn1cnc2cnc3cccnc3c21
162 to 166 | O=C(Nc1ccc(C(=O)N(CCN2CCC(C(=O)c3ccc(F)cc3)CC2)c2cccnc2)cc1)c1ccccc1
185 to 190 | CC(C)(C)C(=O)C(Cl)Oc1ccc(-c2ccccc2)cc1 (configuration not stated)
202 to 203 | CC(C)(C)OC(=O)N[C@H]1COc2ccccc2NC1=O
275 to 277 | CC(=O)Nc1ccc(C(=O)Nc2ccc(O)cc2)cc1
128 to 129 | CCCOc1ccc(C(=O)CN2CCOCC2)cc1-c1nc2c(CCC)nn(C)c2c(=O)[nH]1
167 | CCCCN(CCCC)S(=O)(=O)N[C@@H](Cc1ccc(NC(=O)c2c(Cl)cncc2Cl)cc1)C(=O)O
185 to 186 | CC(=O)c1ccc(N(C2CC2)S(=O)(=O)c2cccc(C(=O)Nc3ccc(C#N)cc3)c2)cc1
190 to 191 | CCc1nnc(NS(=O)(=O)c2ccc(N)cc2)s1
212 to 214 | O=C1c2ccccc2-c2c1c(Cl)nc1cc(OCc3ccccc3)ccc21
208 to 210 | COc1cc(-c2ccccc2C(F)(F)F)c(Cl)cc1C(=O)N1Cc2cccn2Cc2ccccc21
67 to 69.5 | N#CC=C(N)c1ccsc1
194 to 196 | Nc1ccccc1NC(=O)/C=C/c1ccccc1I
133 to 134 | Cn1cc(-c2ccc(F)cc2)c(=O)c(-c2cccc(C(F)(F)F)c2)c1

SMILES | melting point [°C]
ON=CC12CCCN(CCC1)C2 | 115 to 117
O=C(Nc1ccc2c(c1)nc1n2CCC1)c1cc2cccnc2n1Cc1ccccc1 | 251 to 252
CCCCn1c(C)c(C(=O)c2ccccc2C(=O)O)c2ccccc21 | 88 to 92
[N-]=[N+]=NCCCc1ccc(C(=O)O)s1 | 71 to 72
